Source: paper PMC9144902, “Metal(II) Complexes of the Fluoroquinolone Fleroxacin: Synthesis, Characterization and Biological Profile” (Pharmaceutics, 2022)

Columns and labels:
[1] = system: Xanthomonas campestris ATCC 1395; assay: Antimicrobial activity, MIC determination; format: cell-based; conditions: X. campestris; 24-h incubation, 28°C
Protocol: (§1) The in vitro antimicrobial activity of the compounds was evaluated by determining the minimum inhibitory concentration (MIC) against the Gram-positive microorganisms Staphylococcus aureus ATCC 6538 (S. aureus) and Bacillus subtilis ATCC 6633 (B. subtilis) and the Gram-negative microorganism Xanthomonas campestris ATCC 1395 (X. campestris). The affinity of the compounds for bovine serum albumin (BSA) and human serum albumin (HSA) was studied by fluorescence emission spectroscopy, and the corresponding binding constants were determined. Furthermore, the interaction of the compounds with calf-thymus DNA (CT DNA) was investigated to determine the possible mode of interaction by the following methods: (i) UV–vis spectroscopy (where the DNA-binding constants of the complexes (Kb) were also determined), (ii) DNA-viscosity measurements, (iii) cyclic voltammetry and (iv) competitive DNA-binding studies with the classic intercalator ethidium bromide (EB) performed by fluorescence emission spectroscopy.
(§2) Three bacterial strains, one Gram(−) (X. campestris) and two Gram(+) (S. aureus and B. subtilis), were used in order to test the antimicrobial activity of the compounds.
(§3) The antimicrobial activity of the compounds was evaluated b y determining their respective MIC values towards one Gram–( –) (Xanthomonas campestris ATCC 1395 (X. campestris)) and two Gram–(+) (Staphylococcus aureus ATCC 6538 (S. aureus) and Bacillus subtilis ATCC 6633 (B. subtilis)) bacterial species. Cultures of these microbial strains were grown on a rich selective agar medium and stored at 4°C. The selective media used were Nutrient Agar or Broth for B. subtilis and S. aureus, and Yeast Mold Agar or Broth for X. campestris . Cells picked from the surface of the stored cultures were used to initiate liquid pre–cultures of the same selective medium at an initial turbidity of roughl y 1 McFarland unit. Pre–cultures were incubated for 24 h in a rotar y sh aking incubator and subsequently the y were used to inoculate the test cultures used for the determination of MIC at an initial turbidity of 0.5 McFarland units. The test cultures consisted of Mueller–Hinton broth (Deben Diagnostics Ltd) containing different concentrations of the compounds. Different concentrations were achieved as follows: the compounds were freshly dissolved in DMSO to a concentration of 1 mg/mL and they were diluted with DMSO, using the method of progressive double dilution. Therefore, working solutions with decreasing concentrations of the compounds under investigation were achieved. The working solutions were subsequently diluted to the final desired concentration b y addition to the growth medium at a proportion of 2:98. MIC values were determined as the lowest concentrations of the tested compounds that inhibited visible growth of each respective organism after a 24–h incubation [ S1]. Bacterial growth was determined b y measuring the turbidit y of appropriatel y diluted cultures at 600 nm with reference to equall y diluted sterile growth medium and the inhibition achieved was calculated b y comparing the turbidit y of each culture to the average of the turbidit y of three non–inhibited cultures. All test cultures were grown in triplicates and for the determination of MIC, growth had to be inhibited in at least two cultures of the triplicate. In cubation temperatur e at all stages was 37°C ex cept for X. campestris t h at was cultivated at 28°C [S2]. […]
(§4) The fluorescence spectra of the compounds were recorded under the same experimental conditions and presented a low–intensity emission band in the region 405–410 nm .

[2] = system: Staphylococcus aureus ATCC 6538; assay: Antimicrobial activity, MIC determination; format: cell-based; conditions: S. aureus; 24-h incubation, 37°C
Protocol: as §1, §2, §3, §4

[3] = system: Bacillus subtilis ATCC 6633; assay: Antimicrobial activity, MIC determination; format: cell-based; conditions: B. subtilis; 24-h incubation, 37°C
Protocol: as §1, §2, §3, §4

[4] = target: T1, human serum albumin (HSA) (Homo sapiens, UniProt P02768); assay: Albumin binding by tryptophan fluorescence emission quenching; conditions: for K(HSA), HSA-binding constant / kq(HSA), HSA-quenching constant: HSA 3 μM; for K(HSA), HSA-binding constant: buffer pH 7.0, Scatchard equation; for kq(HSA), HSA-quenching constant: buffer pH 7.0, λexc 295 nm, Stern–Volmer, τ0 = 10^–8 s; for HSA fluorescence, % of the initial fluorescence intensity (I/Io): λem,max = 351 nm, final value of titration (Figure S10)
T1 construct: purchased
Protocol: (§5) Serum albumins (Sas) are the most abundant serum proteins and play a role in the circulatory system, primarily in the transport of drugs and other bioactive small molecules through the bloodstream.
(§6) The SA-quenching constants (kq) for the compounds (Table 5) were calculated with the Stern–Volmer quenching equation (Equations (S2) and (S3)).
(§7) Albumin-binding constants (K) were calculated using the Scatchard equation (Equation (S4)). […]
(§8) S2. Interaction with serum albumins
(§9) The albumin–binding study for the compounds was carried out b y fluorescence emission

[5] = target: T2, bovine serum albumin (BSA) (Bos taurus, UniProt P02769); assay: as above; conditions: for K(BSA), BSA-binding constant / kq(BSA), BSA-quenching constant: BSA 3 μM; for K(BSA), BSA-binding constant: buffer pH 7.0, Scatchard equation; for kq(BSA), BSA-quenching constant: buffer pH 7.0, λexc 295 nm, Stern–Volmer, τ0 = 10^–8 s; for BSA fluorescence, % of the initial fluorescence intensity (I/Io): λem,max = 342 nm, final value of titration (Figure S11)
T2 construct: purchased
Protocol: as §5, §6, §7, §8, §9

T1 sequence (P02768 25-609): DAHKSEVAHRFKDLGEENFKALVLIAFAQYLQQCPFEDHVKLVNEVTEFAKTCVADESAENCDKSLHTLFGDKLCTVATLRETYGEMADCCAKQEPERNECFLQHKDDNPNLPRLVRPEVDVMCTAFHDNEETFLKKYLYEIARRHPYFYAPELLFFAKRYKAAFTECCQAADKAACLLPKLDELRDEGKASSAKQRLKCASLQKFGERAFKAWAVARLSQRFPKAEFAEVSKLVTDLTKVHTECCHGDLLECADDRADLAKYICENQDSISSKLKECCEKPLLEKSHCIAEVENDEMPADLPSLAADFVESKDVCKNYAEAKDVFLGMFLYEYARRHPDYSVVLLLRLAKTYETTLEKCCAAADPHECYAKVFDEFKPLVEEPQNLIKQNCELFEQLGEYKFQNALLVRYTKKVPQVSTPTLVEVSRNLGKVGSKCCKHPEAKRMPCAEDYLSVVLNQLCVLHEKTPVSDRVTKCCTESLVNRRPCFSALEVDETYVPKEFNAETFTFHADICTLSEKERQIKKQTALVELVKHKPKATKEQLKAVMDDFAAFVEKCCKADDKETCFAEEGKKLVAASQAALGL
T2 sequence (P02769 25-607): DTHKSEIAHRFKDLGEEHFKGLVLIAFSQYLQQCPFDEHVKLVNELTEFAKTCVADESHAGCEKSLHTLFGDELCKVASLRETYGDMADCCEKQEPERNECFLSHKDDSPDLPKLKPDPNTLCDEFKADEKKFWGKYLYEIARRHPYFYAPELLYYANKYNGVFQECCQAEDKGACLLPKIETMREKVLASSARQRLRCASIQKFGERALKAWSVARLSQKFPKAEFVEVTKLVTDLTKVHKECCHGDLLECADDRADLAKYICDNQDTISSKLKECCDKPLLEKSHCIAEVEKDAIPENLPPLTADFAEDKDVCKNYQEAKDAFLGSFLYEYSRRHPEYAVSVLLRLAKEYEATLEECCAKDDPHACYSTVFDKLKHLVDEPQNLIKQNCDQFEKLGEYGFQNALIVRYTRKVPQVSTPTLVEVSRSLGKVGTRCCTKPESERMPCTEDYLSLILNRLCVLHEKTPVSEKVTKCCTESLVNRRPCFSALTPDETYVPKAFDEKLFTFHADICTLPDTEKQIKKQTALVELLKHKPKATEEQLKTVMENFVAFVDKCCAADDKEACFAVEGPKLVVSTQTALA

SMILES | MIC [1] | MIC (values in parentheses) [1] | MIC [2] | MIC (values in parentheses) [2] | MIC [3] | MIC (values in parentheses) [3] | K(HSA), HSA-binding constant [4] | kq(HSA), HSA-quenching constant [4] | HSA fluorescence, % of the initial fluorescence intensity (I/Io) [4] | K(BSA), BSA-binding constant [5] | kq(BSA), BSA-quenching constant [5] | BSA fluorescence, % of the initial fluorescence intensity (I/Io) [5]
CN1CCN(c2c(F)cc3c(=O)c(C(=O)[O-])cn(CCF)c3c2F)CC1.CN1CCN(c2c(F)cc3c(=O)c(C(=O)[O-])cn(CCF)c3c2F)CC1.[Mn+2].c1cnc2c(c1)ccc1cccnc12 [complex 11, [Mn(flrx)2(phen)]] | 16 µg/mL | 16.4 µM | 8 µg/mL | 8.2 µM | 8 µg/mL | 8.2 µM | 1.01(±0.04) × 10^5 M^−1 | 1.03(±0.01) × 10^13 M^−1s^−1 | 34.2% | 1.09(±0.03) × 10^5 M^−1 | 1.65(±0.04) × 10^13 M^−1s^−1 | 25.2%
CN1CCN(c2c(F)cc3c(=O)c(C(=O)[O-])cn(CCF)c3c2F)CC1.CN1CCN(c2c(F)cc3c(=O)c(C(=O)[O-])cn(CCF)c3c2F)CC1.CO.CO.[Co+2] [complex 4, [Co(flrx)2(MeOH)2]] | 16 µg/mL | 18.6 µM | 4 µg/mL | 4.6 µM | 8 µg/mL | 9.3 µM | 7.68(±0.33) × 10^4 M^−1 | 6.05(±0.13) × 10^12 M^−1s^−1 | 44.3% | 1.02(±0.05) × 10^5 M^−1 | 1.34(±0.03) × 10^13 M^−1s^−1 | 26.3%
CN1CCN(c2c(F)cc3c(=O)c(C(=O)[O-])cn(CCF)c3c2F)CC1.CN1CCN(c2c(F)cc3c(=O)c(C(=O)[O-])cn(CCF)c3c2F)CC1.[Ni+2].c1cnc2c(c1)ccc1cccnc12 [complex 19, [Ni(flrx)2(phen)]] | 16 µg/mL | 16.4 µM | 8 µg/mL | 8.2 µM | 8 µg/mL | 8.2 µM | 6.65(±0.15) × 10^4 M^−1 | 6.67(±0.18) × 10^12 M^−1s^−1 | 43.9% | 8.01(±0.28) × 10^4 M^−1 | 1.39(±0.04) × 10^13 M^−1s^−1 | 25.6%
CN1CCN(c2c(F)cc3c(=O)c(C(=O)[O-])cn(CCF)c3c2F)CC1.CN1CCN(c2c(F)cc3c(=O)c(C(=O)[O-])cn(CCF)c3c2F)CC1.[Co+2].c1cnc2c(c1)ccc1cccnc12 [complex 17, [Co(flrx)2(phen)]] | 16 µg/mL | 16.0 µM | 8 µg/mL | 8.0 µM | 8 µg/mL | 8.0 µM | 5.18(±0.32) × 10^4 M^−1 | 6.49(±0.21) × 10^12 M^−1s^−1 | 44.5% | 1.44(±0.03) × 10^5 M^−1 | 1.50(±0.03) × 10^13 M^−1s^−1 | 26.3%
CN1CCN(c2c(F)cc3c(=O)c(C(=O)[O-])cn(CCF)c3c2F)CC1.CN1CCN(c2c(F)cc3c(=O)c(C(=O)[O-])cn(CCF)c3c2F)CC1.O.O.[Mn+2] [complex 2, [Mn(flrx)2(H2O)2]] | 16 µg/mL | 18.7 µM | 4 µg/mL | 4.7 µM | 4 µg/mL | 4.7 µM | 9.58(±0.39) × 10^4 M^−1 | 1.42(±0.04) × 10^13 M^−1s^−1 | 28.5% | 1.45(±0.04) × 10^5 M^−1 | 3.45(±0.16) × 10^13 M^−1s^−1 | 11.1%
CN1CCN(c2c(F)cc3c(=O)c(C(=O)[O-])cn(CCF)c3c2F)CC1.CN1CCN(c2c(F)cc3c(=O)c(C(=O)[O-])cn(CCF)c3c2F)CC1.[Co+2].c1ccc(-c2ccccn2)nc1 [complex 15, [Co(flrx)2(bipy)]] | 16 µg/mL | 16.8 µM | 4 µg/mL | 4.2 µM | 8 µg/mL | 8.4 µM | 8.13(±0.25)×10^4 M^−1 | 1.56(±0.05) × 10^13 M^−1s^−1 | 26.1% | 2.84(±0.11) × 10^5 M^−1 | 5.12(±0.17) × 10^13 M^−1s^−1 | 9.2%
CN1CCN(c2c(F)cc3c(=O)c(C(=O)[O-])cn(CCF)c3c2F)CC1.[Cl-].[Cu+2].c1ccc(-c2ccccn2)nc1 [complex 6, [Cu(flrx)(bipy)Cl]] | 8 µg/mL | 12.8 µM | 4 µg/mL | 6.4 µM | 8 µg/mL | 12.8 µM | 1.02(±0.03) × 10^5 M^−1 | 6.08(±0.06) × 10^12 M^−1s^−1 | 48.5% | 6.12(±0.33) × 10^4 M^−1 | 1.59(±0.07) × 10^13 M^−1s^−1 | 25.7%
CN1CCN(c2c(F)cc3c(=O)c(C(=O)[O-])cn(CCF)c3c2F)CC1.CN1CCN(c2c(F)cc3c(=O)c(C(=O)[O-])cn(CCF)c3c2F)CC1.CO.CO.[Ni+2] [complex 5, [Ni(flrx)2(MeOH)2]] | 16 µg/mL | 18.6 µM | 4 µg/mL | 4.6 µM | 4 µg/mL | 4.6 µM | 5.76(±0.28) × 10^4 M^−1 | 1.09(±0.03) × 10^13 M^−1s^−1 | 34.1% | 1.75(±0.07) × 10^5 M^−1 | 2.37(±0.13) × 10^13 M^−1s^−1 | 19.2%
CN1CCN(c2c(F)cc3c(=O)c(C(=O)[O-])cn(CCF)c3c2F)CC1.[Cl-].[Cu+2].c1cnc2c(c1)ccc1cccnc12 [complex 8, [Cu(flrx)(phen)Cl]] | 8 µg/mL | 12.3 µM | 8 µg/mL | 12.3 µM | 8 µg/mL | 12.3 µM | 3.45(±0.14) × 10^4 M^−1 | 4.08(±0.13) × 10^12 M^−1s^−1 | 56.5% | 5.03(±0.22) × 10^4 M^−1 | 1.04(±0.03) × 10^13 M^−1s^−1 | 34.4%
